# Reference: ChEMBL document CHEMBL3751674, “Synthesis, antimicrobial activity of Schiff base compounds of cinnamaldehyde and amino acids” (2016)
# What was measured:
# Assay type in all cases: functional
# Details in all cases: read-out: DIZ
# Escherichia coli [1] = assay: Antibacterial activity against Escherichia coli at 0.13 mol/L after 12 to 24 hrs by paper disc method
# Penicillium citrinum [2] = assay: Antifungal activity against Penicillium citrinum at 0.06 mol/L after 2 to 4 days by paper disc method
# Aspergillus niger [3] = assay: Antifungal activity against Aspergillus niger at 0.13 mol/L after 2 to 4 days by paper disc method
# Penicillium citrinum [4] = assay: Antifungal activity against Penicillium citrinum at 0.25 mol/L after 2 to 4 days by paper disc method
# Staphylococcus aureus [5] = assay: Antibacterial activity against Staphylococcus aureus at 0.13 mol/L after 12 to 24 hrs by paper disc method
# Staphylococcus aureus [6] = assay: Antibacterial activity against Staphylococcus aureus at 0.25 mol/L after 12 to 24 hrs by paper disc method
# Aspergillus niger [7] = assay: Antifungal activity against Aspergillus niger at 0.25 mol/L after 2 to 4 days by paper disc method
# Penicillium citrinum [8] = assay: Antifungal activity against Penicillium citrinum at 0.03 mol/L after 2 to 4 days by paper disc method
# Aspergillus niger [9] = assay: Antifungal activity against Aspergillus niger at 0.03 mol/L after 2 to 4 days by paper disc method
# Staphylococcus aureus [10] = assay: Antibacterial activity against Staphylococcus aureus at 0.03 mol/L after 12 to 24 hrs by paper disc method
# Escherichia coli [11] = assay: Antibacterial activity against Escherichia coli at 0.06 mol/L after 12 to 24 hrs by paper disc method
# Aspergillus niger [12] = assay: Antifungal activity against Aspergillus niger at 0.06 mol/L after 2 to 4 days by paper disc method
# Penicillium citrinum [13] = assay: Antifungal activity against Penicillium citrinum at 0.13 mol/L after 2 to 4 days by paper disc method
# Escherichia coli [14] = assay: Antibacterial activity against Escherichia coli at 0.03 mol/L after 12 to 24 hrs by paper disc method
# Escherichia coli [15] = assay: Antibacterial activity against Escherichia coli at 0.25 mol/L after 12 to 24 hrs by paper disc method
# Staphylococcus aureus [16] = assay: Antibacterial activity against Staphylococcus aureus at 0.06 mol/L after 12 to 24 hrs by paper disc method
SMILES,zone of inhibition at 130000 µM (Escherichia coli [1]) [mm],zone of inhibition at 60000 µM (Penicillium citrinum [2]) [mm],zone of inhibition at 130000 µM (Aspergillus niger [3]) [mm],zone of inhibition at 250000 µM (Penicillium citrinum [4]) [mm],zone of inhibition at 130000 µM (Staphylococcus aureus [5]) [mm],zone of inhibition at 250000 µM (Staphylococcus aureus [6]) [mm],zone of inhibition at 250000 µM (Aspergillus niger [7]) [mm],zone of inhibition at 30000 µM (Penicillium citrinum [8]) [mm],zone of inhibition at 30000 µM (Aspergillus niger [9]) [mm],zone of inhibition at 30000 µM (Staphylococcus aureus [10]) [mm],zone of inhibition at 60000 µM (Escherichia coli [11]) [mm],zone of inhibition at 60000 µM (Aspergillus niger [12]) [mm],zone of inhibition at 130000 µM (Penicillium citrinum [13]) [mm],zone of inhibition at 30000 µM (Escherichia coli [14]) [mm],zone of inhibition at 250000 µM (Escherichia coli [15]) [mm],zone of inhibition at 60000 µM (Staphylococcus aureus [16]) [mm]
CC(C)[C@H](/N=C/C=C/c1ccccc1)C(=O)O,8,8,12.3,12.5,8,8,12.7,9,8,8,11,13,9.7,8,9,8
O=C(O)[C@H](Cc1ccc(O)cc1)/N=C/C=C/c1ccccc1,19.5,11,18.7,12,11.5,14.2,12,12.3,8,8,8,12.3,11.5,12,31.3,8
CC(C)C[C@H](/N=C/C=C/c1ccc(Cl)cc1)C(=O)O,17.8,19.7,20.7,28.3,11,28.3,29.3,16.5,18.3,8.7,10,18.7,25.7,9.3,17,16.8
O=C(O)[C@H](Cc1ccc(O)cc1)/N=C/C=C/c1ccc(Cl)cc1,12,15.7,15.7,25,12.7,19.3,29.7,11.5,12.3,9.7,15.7,15.5,23.5,13.7,17.8,11.7
COc1ccc(/C=C/C=N/[C@H](C(=O)O)C(C)C)cc1,8,12.7,13.3,14.3,8,9,16.7,8,9,8,12,10.3,11.7,8,9,8
COc1ccc(/C=C/C=N/[C@@H](CC(C)C)C(=O)O)cc1,14,10,16,17.7,8,10.8,19,12,9.7,9.7,9.3,10.5,12,8,13,8
COc1ccc(/C=C/C=N/[C@@H](Cc2ccc(O)cc2)C(=O)O)cc1,12.3,19,14.7,24,8.7,8.5,19.5,10.8,10.3,8,8.3,13.8,16.5,12,18,8
O=C(O)[C@H](Cc1ccccc1)/N=C/C=C/c1ccccc1,8,8,9.2,10.7,8,11,10.7,8,8,10,8,8.7,9.7,8,8,8
COc1ccc(/C=C/C=N/[C@@H](Cc2ccccc2)C(=O)O)cc1,13.8,10.5,13,24.7,8.3,12,19,14,18.3,8,8,10.8,19.7,13.2,12.3,8
CC(C)C[C@H](/N=C/C=C/c1ccccc1)C(=O)O,8.3,9.3,9.8,10.5,8,8,16.3,8.5,8,8,8,8,9,8,10,8.2
CC(/N=C/C=C/c1ccc(Cl)cc1)C(=O)O (stereo not drawn),12.5,24.7,24.7,30.3,33.5,33.7,26.7,17.3,13.8,8.7,11.5,19.3,26.3,12,12.2,10.5
CC(C)[C@H](/N=C/C=C/c1ccc(Cl)cc1)C(=O)O,15.3,19.5,24,33.5,15.3,33,27.3,20.7,15.7,11,11,19,31,12,20.5,13.5
O=C(O)[C@H](Cc1ccccc1)/N=C/C=C/c1ccc(Cl)cc1,26,21,19.7,35,29,33,26,18.3,12.3,9,19,21,23.2,9.2,19.5,13.3
O=C(O)c1cn(C2CC2)c2cc(N3CCNCC3)c(F)cc2c1=O [CIPROFLOXACIN],23.3,–,–,–,21,21,–,–,–,16,–,–,–,22.3,24.3,16.7
OC(Cn1cncn1)(Cn1cncn1)c1ccc(F)cc1F [FLUCONAZOLE],–,9.2,18.7,13.3,–,–,25,8,14.5,–,–,17.7,13,–,–,–
